Assay results as given in patent US20230295197A1, “STAT5 and STAT6 Degraders and Uses Thereof” (REGENTS OF THE UNIVERSITY OF MICHICAN, priority 2022, published 2023).
Read-outs that look alike come from different tables or passages of the source.

Target: T1, STAT6 (Homo sapiens, UniProt P42226)
T1 construct: endogenous in cells; host or cells: MOLM-16, KU-812, SKNO1, MB231, L1236
T1 sequence (P42226 1-847): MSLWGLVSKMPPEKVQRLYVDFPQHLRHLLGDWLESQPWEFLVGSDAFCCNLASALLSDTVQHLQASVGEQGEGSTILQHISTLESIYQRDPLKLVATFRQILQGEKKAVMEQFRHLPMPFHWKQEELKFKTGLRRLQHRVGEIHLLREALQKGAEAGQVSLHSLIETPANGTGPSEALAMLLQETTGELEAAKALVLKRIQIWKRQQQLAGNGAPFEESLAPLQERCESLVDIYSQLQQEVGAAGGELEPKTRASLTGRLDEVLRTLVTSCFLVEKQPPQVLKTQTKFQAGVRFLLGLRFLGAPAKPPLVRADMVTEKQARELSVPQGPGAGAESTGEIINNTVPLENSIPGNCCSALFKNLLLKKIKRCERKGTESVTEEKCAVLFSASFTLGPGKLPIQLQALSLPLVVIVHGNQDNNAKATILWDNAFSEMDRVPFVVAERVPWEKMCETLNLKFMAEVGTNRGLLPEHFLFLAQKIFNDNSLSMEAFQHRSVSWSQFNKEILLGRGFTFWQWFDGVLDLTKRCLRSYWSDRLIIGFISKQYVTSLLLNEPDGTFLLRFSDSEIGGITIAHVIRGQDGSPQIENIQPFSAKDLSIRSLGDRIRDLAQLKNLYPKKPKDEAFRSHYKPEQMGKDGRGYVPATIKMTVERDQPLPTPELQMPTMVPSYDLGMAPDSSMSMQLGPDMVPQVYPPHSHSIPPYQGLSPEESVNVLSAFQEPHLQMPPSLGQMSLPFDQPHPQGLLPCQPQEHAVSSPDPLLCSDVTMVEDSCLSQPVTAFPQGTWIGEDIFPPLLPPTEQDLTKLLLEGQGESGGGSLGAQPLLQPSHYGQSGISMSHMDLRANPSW
Experiment: Immunoblotting (Western blot) analysis of STAT6 degradation efficiency of degraders in treated cells
Assay type: cell-based
Procedure, shortened: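 Degradation read by quantitative near-infrared Western blot: equal protein loads (20-40 μg) from compound-treated versus untreated cells, probed overnight at 4° C. for STAT5 or STAT6 with GAPDH reference. Compound concentrations and exposure times as indicated; cells grown in medium with 10% FBS at 37° C.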

[1] = MOLM-16 cells, class symbols, read-out: DC50 S6 MOLM-16
[2] = L1236 cells, read-out: DC50 S6 L1236

| Compound | DC50 [1] | DC50 (MB231 cells, read-out: DC50 S6 MB231) | DC50 [2] |
| --- | --- | --- | --- |
| CC(C)(C)[C@H](NC(=O)c1cc2cc(C(F)(F)P(=O)(O)O)ccc2s1)C(=O)N1C[C@@H](OCC(=O)NCC#Cc2ccc3c(c2)C(=O)N(C2CCC(=O)NC2=O)C3=O)C[C@H]1C(=O)N1CCO[C@H](c2ccccc2)C1 (stereo partly drawn) [Compound 480, ((2-(((2S)-1-((2S,4S)-4-(2-((3-(2-(2,6-dioxopiperidin-3-yl)-1,3-dioxoisoindolin-5-yl)prop-2-yn-1-yl)amino)-2-oxoethoxy)-2-((R)-2-phenylmorpholine-4-carbonyl)pyrrolidin-1-yl)-3,3-dimethyl-1-oxobutan-2-yl)carbamoyl)benzo[b]thiophen-5-yl)difluoromethyl)phosphonic acid] | > 10 µM |  |  |
| CC(C)(C)[C@H](NC(=O)c1cc2cc(C(F)(F)P(=O)(O)O)ccc2s1)C(=O)N1CCN(C(=O)CC(=O)NCCCCCC#Cc2cccc3c2C(=O)N(C2CCC(=O)NC2=O)C3=O)C[C@H]1C(=O)N1CCC[C@H](c2ccccc2)C1 (stereo partly drawn) [Compound 529, ((2-(((2S)-1-((2S)-4-(3-((7-(2-(2,6-dioxopiperidin-3-yl)-1,3-dioxoisoindolin-4-yl)hept-6-yn-1-yl)amino)-3-oxopropanoyl)-2-((R)-3-phenylpiperidine-1-carbonyl)piperazin-1-yl)-3,3-dimethyl-1-oxobutan-2-yl)carbamoyl)benzo[b]thiophen-5-yl)difluoromethyl)phosphonic acid] | > 10 µM |  |  |
| CC(C)(C)[C@H](NC(=O)c1cc2cc(C(F)(F)P(=O)(O)O)ccc2s1)C(=O)N1Cc2cc(OCC(=O)NCCCCCCCCCC#Cc3ccc4c(c3)C(=O)N(C3CCC(=O)NC3=O)C4=O)ccc2C[C@H]1C(=O)N1CCC[C@H](c2ccccc2)C1 (stereo partly drawn) [Compound 562, ((2-(((2S)-1-((3S)-7-(2-((11-(2-(2,6-dioxopiperidin-3-yl)-1,3-dioxoisoindolin-5-yl)undec-10-yn-1-yl)amino)-2-oxoethoxy)-3-((R)-3-phenylpiperidine-1-carbonyl)-3,4-dihydroisoquinolin-2(1H)-yl)-3,3-dimethyl-1-oxobutan-2-yl)carbamoyl)benzo[b]thiophen-5-yl)difluoromethyl)phosphonic acid] | > 10 µM |  |  |
| Cc1cc([C@H](C(=O)N2C[C@H](O)C[C@H]2C(=O)N[C@@H](CC(=O)NCCCCCCCCNC(=O)CO[C@@H]2C[C@@H](C(=O)N(C)c3ccc(Br)cc3)N(C(=O)[C@@H](NC(=O)c3cc4cc(C(F)(F)P(=O)(O)O)ccc4s3)C(C)(C)C)C2)c2ccc(-c3scnc3C)cc2)C(C)C)on1 [Compound 423, ((2-(((S)-1-((2S,4R)-2-((4-bromophenyl)(methyl)carbamoyl)-4-(2-((8-((S)-3-((2S,4R)-4-hydroxy-1-((R)-3-methyl-2-(3-methylisoxazol-5-yl)butanoyl)pyrrolidine-2-carboxamido)-3-(4-(4-methylthiazol-5-yl)phenyl)propanamido)octyl)amino)-2-oxoethoxy)pyrrolidin-1-yl)-3,3-dimethyl-1-oxobutan-2-yl)carbamoyl)benzo[b]thiophen-5-yl)difluoromethyl)phosphonic acid] | > 10 µM |  |  |
| CC(C)(C)[C@H](NC(=O)c1cc2cc(C(F)(F)P(=O)(O)O)ccc2s1)C(=O)N1C[C@@H](OCC(=O)NCCCCCC#Cc2ccc3c(c2)C(=O)N(C2CCC(=O)NC2=O)C3=O)C[C@H]1C(=O)N1CCC[C@H](c2ccccc2)C1 (stereo partly drawn) [Compound 502, ((2-(((2S)-1-((2S,4S)-4-(2-((7-(2-(2,6-dioxopiperidin-3-yl)-1,3-dioxoisoindolin-5-yl)hept-6-yn-1-yl)amino)-2-oxoethoxy)-2-((R)-3-phenylpiperidine-1-carbonyl)pyrrolidin-1-yl)-3,3-dimethyl-1-oxobutan-2-yl)carbamoyl)benzo[b]thiophen-5-yl)difluoromethyl)phosphonic acid] | > 10 µM |  |  |
| Cc1cc([C@H](C(=O)N2C[C@H](O)C[C@H]2C(=O)N[C@@H](CC(=O)NCCCCCCCCNC(=O)CCN(C(=O)[C@@H]2CCCN2C(=O)[C@@H](NC(=O)c2cc3cc(C(F)(F)P(=O)(O)O)ccc3s2)C(C)(C)C)c2ccc(Br)cc2)c2ccc(-c3scnc3C)cc2)C(C)C)on1 [Compound 408, ((2-(((S)-1-((S)-2-((4-bromophenyl)(3-((8-((S)-3-((2S,4R)-4-hydroxy-1-((R)-3-methyl-2-(3-methylisoxazol-5-yl)butanoyl)pyrrolidine-2-carboxamido)-3-(4-(4-methylthiazol-5-yl)phenyl)propanamido)octyl)amino)-3-oxopropyl)carbamoyl)pyrrolidin-1-yl)-3,3-dimethyl-1-oxobutan-2-yl)carbamoyl)benzo[b]thiophen-5-yl)difluoromethyl)phosphonic acid] |  | > 10 µM |  |
| Cc1ncsc1-c1ccc([C@H](C)NC(=O)[C@@H]2C[C@@H](O)CN2C(=O)[C@@H](NC(=O)CNC(=O)CC(=O)N2CCN(C(=O)[C@@H](NC(=O)c3cc4cc(C(F)(F)P(=O)(O)O)ccc4s3)C(C)(C)C)[C@H](C(=O)N3CCO[C@H](c4ccccc4)C3)C2)C(C)(C)C)cc1 [Compound 443, (difluoro(2-(((S)-1-((S)-4-(3-((2-(((S)-1-((2S,4R)-4-hydroxy-2-(((S)-1-(4-(4-methylthiazol-5-yl)phenyl)ethyl)carbamoyl)pyrrolidin-1-yl)-3,3-dimethyl-1-oxobutan-2-yl)amino)-2-oxoethyl)amino)-3-oxopropanoyl)-2-((R)-2-phenylmorpholine-4-carbonyl)piperazin-1-yl)-3,3-dimethyl-1-oxobutan-2-yl)carbamoyl)benzo[b]thiophen-5-yl)methyl)phosphonic acid] | > 10 µM |  | > 10 µM |
| Cc1ncsc1-c1ccc([C@H](C)NC(=O)[C@@H]2C[C@@H](O)CN2C(=O)[C@@H](NC(=O)CCCCCCCCNC(=O)CC(=O)N2CCN(C(=O)[C@@H](NC(=O)c3cc4cc(C(F)(F)P(=O)(O)O)ccc4s3)C(C)(C)C)[C@H](C(=O)N3CCC[C@H](c4ccccc4)C3)C2)C(C)(C)C)cc1 [Compound 459, (difluoro(2-(((S)-1-((S)-4-(3-((9-(((S)-1-((2S,4R)-4-hydroxy-2-(((S)-1-(4-(4-methylthiazol-5-yl)phenyl)ethyl)carbamoyl)pyrrolidin-1-yl)-3,3-dimethyl-1-oxobutan-2-yl)amino)-9-oxononyl)amino)-3-oxopropanoyl)-2-((R)-3-phenylpiperidine-1-carbonyl)piperazin-1-yl)-3,3-dimethyl-1-oxobutan-2-yl)carbamoyl)benzo[b]thiophen-5-yl)methyl)phosphonic acid] | > 10 µM |  | > 10 µM |
| Cc1ncsc1-c1ccc([C@H](CC(=O)NCCCCCCCCC(=O)N[C@H]2C[C@@H](C(=O)N3CCO[C@H](c4ccccc4)C3)N(C(=O)[C@@H](NC(=O)c3cc4cc(C(F)(F)P(=O)(O)O)ccc4s3)C(C)(C)C)C2)NC(=O)[C@@H]2C[C@@H](O)CN2C(=O)[C@@H](NC(=O)C2(F)CC2)C(C)(C)C)cc1 [Compound 571, (difluoro(2-(((S)-1-((2S,4S)-4-(9-((S)-3-((2S,4R)-1-((S)-2-(1-fluorocyclopropane-1-carboxamido)-3,3-dimethylbutanoyl)-4-hydroxypyrrolidine-2-carboxamido)-3-(4-(4-methylthiazol-5-yl)phenyl)propanamido)nonanamido)-2-((R)-2-phenylmorpholine-4-carbonyl)pyrrolidin-1-yl)-3,3-dimethyl-1-oxobutan-2-yl)carbamoyl)benzo[b]thiophen-5-yl)methyl)phosphonic acid] | > 10 µM |  |  |
